The record followed here is US7452678B2, “Identification of biomarkers for liver toxicity” (Bristol-Myers Squibb Company, priority 2003, dated 2008).

Data set [1] has as its system THLE-5B-3A4. On the procedure:
When the cells reached confluence, the medium was removed by aspiration, and replaced with 30 ml of serum and transferrin free PMRF-4 medium (SFM) containing either vehicle (0.5% DMSO) or compound in 0.5% DMSO.
Cells were incubated for 20 hr at 37° C. Conditioned media (i.e., media incubated with cells) was collected by decanting, then syringe-filtered through 0.22 μm membrane, and stored at −70° C. before preparation for LC/LC/MS/MS analysis.
Following electrophoresis, the proteins were transferred to PVDF membrane at 30 V for 1 hr. […] Following incubation with an anti-rabbit secondary antibody (1:5000 dilution, Sigma), bands were visualized using an enhanced chemiluminescent detection system (ECL+, Amersham, Piscataway, N.J.) and imaged using a cooled charge-coupled device camera (Fluor S-Max, Bio-Rad, Hercules, Calif.). The signals from the blots were quantified using Quantity One software (Bio-Rad).
Conditioned media samples used to identify the proteins were assayed by blotting to determine presence and relative concentrations of the proteins as a function of each treatment. This was done to verify the accuracy of the mass spectral data (Table 3) and to increase the precision of the quantitative measurements.

Data set [2] in a line: Cytotoxicity in the hepatocyte culture system, inhibition of ATP synthesis (CellTiter-Glo bioluminescence). In kind it is cell-based, human. The conditions noted are these: human; hepatotoxic drugs were dosed at their IC50 for cytotoxicity, inhibition of ATP synthesis as endpoint; read-out: Concentration (IC50 value for cytotoxicity). The source says:
(§1) These immortalized cells are reported to be similar to quiescent normal human hepatocytes. […] The THLE-5 cell line (also named THLE-5B) was previously deposited under the terms and conditions of the Budapest Treaty at the American Type Culture Collection on Apr.
(§2) The cell line THLE-5B-3A4, which expresses the 3A4 isoform of cytochrome P450, was derived by transfection of THLE-5B-c15 with a CMV expression vector comprising a human cDNA coding for the specific P450 isoenzyme and a selection marker, using methods known in the art.
(§3) For the purposes of this study, the non-hepatotoxic drugs were administered at 50 μM (Table 1).
For orientation: In ATP-based viability assays light output follows the ATP content of the culture.

For data set [3], the system named is HHA Cells. The data set is described as above. In kind it is cell-based, human.
Description: as §1, §2, §3

Data set [4] has as its system THLE-5B-3A4. The data set is described as follows: LC/LC/MS/MS peptide hits of biomarker polypeptides in conditioned media of treated hepatocytes. In kind it is cell-based, human. The conditions noted are these: 20 hr, concentrations of Table 1. On the procedure: Cells were incubated for 20 hr at 37° C.
Following a single thaw in a 1 L cylinder of water at room temperature, the filtered media were concentrated by centrifugal filtration (10 kDa, Pall Gelman Laboratory, Ann Arbor, Mich.). […] After reduction, 500 nmol of iodoacetamide (Sigma) was added to each sample and incubated in the dark at room temperature for an additional 30 min. Finally, samples were diluted four-fold and 20 μg of TPCK-treated porcine trypsin (Promega, Madison, Wis.) was added to each sample prior to incubation for 18 hr at 37° C. Samples were subsequently desalted using separate C18 spin columns (Nest Group, Southboro, Mass.) before injection onto the LC/LC/MS/MS system.
The capillary column was first packed with 10 cm of C18 reversed-phase material (SelfPack Poros 10 R2, ABI, Framingham, Mass.), and this was followed by 5 cm of strong cation exchange material (Poros 20 HS SCX, ABI). A load of 200 μg of digested material, based on the total protein assay, was used for each analysis.
Each analysis included a salt step, followed by buffer wash, then a reversed phase run of increasing organic concentration. Following the completion of each successive reversed phase gradient, the salt concentration was increased, and the cycle was begun again (FIG. 2).
This separation included a 100 min analysis with a gradient of 0-40% Buffer A to B for 0 to 75 min, 40-100% B for 75-85 min, 100-0% B for 85-90 min, and finally a re-equilibration hold at 0% B for 90-100 min. The aforementioned gradients were delivered by a binary pump (1100, Agilent, Wilmington, Del.), which was split 1:200 prior to connection to the capillary column.
The mass spectrometer's capillary temp was set to 200° C., and the spray voltage was set to 2 kV. In survey scan mode, two microscans were used to acquire 9e^7 counts, with a maximum acquisition time of 1000 msec. In MS/MS mode, 3 microscans were used to acquire 2e^7 counts, with a maximum acquisition time of 300 msec. The instrument was set to trigger data dependent fragmentation of the three most intense ions detected during the MS survey scan.
The output file from the […] program was then downloaded to desktop spreadsheet programs for further statistical analysis (Excel, Microsoft, Redmond, Wash.).

Where [5] appears, read: Table 1, 8 treatments of the discovery panel.
The mark [6] stands for this setting: Table 2, panel of 20 treatments.

Take `CC1(COc2ccc(CC3SC(=O)NC3=O)cc2)CCCCC1` (stereo not shown) [Ciglitazone]: in data set [1], the “change in levels of BMS-PTX-265” value is “statistically significant (p<0.05) increase”. Further, the IC50 in data set [2] came out at 38 µM. For the same compound, the “Toxicity in HHA Cells” value in data set [3] (setting [5]) is listed as “Toxic”. In addition, in data set [3] (setting [6]), the “Toxicity in HHA Cells” value is reported as “Toxic”. Also, in data set [4], the “peptide hits BMS-PTX-062” value amounted to 27, the “peptide hits BMS-PTX-120” value was 44, the “peptide hits BMS-PTX-225” value is given as 25 and the “peptide hits BMS-PTX-254” value was 28. Further, in data set [4], the “peptide hits BMS-PTX-260” value was found to be 24, the “peptide hits BMS-PTX-265” value is on record as 93, the “peptide hits BMS-PTX-447” value turned out to be 82 and the “peptide hits BMS-PTX-459” value came to 31. In addition, in data set [4], the “peptide hits BMS-PTX-607” value was found to be 6, the “peptide hits BMS-PTX-749” value was determined as 142, the “peptide hits BMS-PTX-808” value is reported as 14 and the “peptide hits BMS-PTX-837” value is listed as 25. In data set [4], the “peptide hits BMS-PTX-860” value came to 9, the “peptide hits BMS-PTX-(29)147” value was 239 and the “peptide hits BMS-PTX-(39)147” value worked out at 36.
Consider `O=C1CN(/N=C/c2ccc(-c3ccc([N+](=O)[O-])cc3)o2)C(O)=N1` [Dantrolene], for which the “Toxicity in HHA Cells” value in data set [3] (setting [6]) is “Toxic”.
In the case of `O=C(O)Cc1ccccc1Nc1c(Cl)cccc1Cl` [Diclofenac], the “Toxicity in HHA Cells” value in data set [3] (setting [6]) is given as “Non-Toxic”.
On the same count and under the same terms, for `C#C[C@]1(O)CC[C@H]2[C@@H]3CCc4cc(O)ccc4[C@H]3CC[C@@]21C` [Ethinyl Estradiol] the value was “Non-Toxic”.
`Cc1oc(-c2ccccc2)nc1CCOc1ccc(C[C@H](Nc2ccccc2C(=O)c2ccccc2)C(=O)O)cc1` [Farglitazar]: the “change in levels of BMS-PTX-265” value in data set [1] was “statistically significant (p<0.05) increase”. Moreover, the IC50 in data set [2] is 8.61 µM. For the same compound, in data set [3] (setting [5]), the “Toxicity in HHA Cells” value is recorded as “Toxic”. Further, the “Toxicity in HHA Cells” value in data set [3] (setting [6]) is given as “Toxic”. In data set [4], the “peptide hits BMS-PTX-062” value turned out to be 29, the “peptide hits BMS-PTX-120” value turned out to be 35, the “peptide hits BMS-PTX-225” value amounted to 10 and the “peptide hits BMS-PTX-254” value was found to be 14. Moreover, in data set [4], the “peptide hits BMS-PTX-260” value is on record as 21, the “peptide hits BMS-PTX-265” value is on record as 49, the “peptide hits BMS-PTX-447” value came out at 54 and the “peptide hits BMS-PTX-459” value is 24. In data set [4], the “peptide hits BMS-PTX-607” value was 13, the “peptide hits BMS-PTX-749” value was found to be 87, the “peptide hits BMS-PTX-808” value is on record as 10 and the “peptide hits BMS-PTX-837” value was determined as 15. For the same compound, in data set [4], the “peptide hits BMS-PTX-860” value was 15, the “peptide hits BMS-PTX-(29)147” value was 128 and the “peptide hits BMS-PTX-(39)147” value was 24.
In the case of `CC(C)Cc1ccc(C(C)C(=O)O)cc1` (stereo not shown) [Ibuprofen], in data set [3] (setting [6]), the “Toxicity in HHA Cells” value is given as “Non-Toxic”.
For `C1CCC(C(CC2CCCCN2)C2CCCCC2)CC1` (stereo not shown) [Perhexilene], the “Toxicity in HHA Cells” value in data set [3] (setting [6]) is listed as “Toxic”.
On to `CCc1ccc(CCOc2ccc(CC3SC(=O)NC3=O)cc2)nc1` (stereo not shown) [Pioglitazone], for which the “Toxicity in HHA Cells” value in data set [3] (setting [6]) was “Non-Toxic”.
As to `CCO[C@@H](Cc1ccc(OCCN2c3ccccc3Oc3ccccc32)cc1)C(=O)O` [Ragaglitazar], the “Toxicity in HHA Cells” value in data set [3] (setting [6]) is recorded as “Non-Toxic”.
Consider `O=C(c1ccc(OCCN2CCCCC2)cc1)c1c(-c2ccc(O)cc2)sc2cc(O)ccc12` [Raloxifene], for which the “Toxicity in HHA Cells” value in data set [3] (setting [6]) is “Toxic”.
On to `CC(C)c1nc(CN(C)C(=O)N[C@H](C(=O)N[C@@H](Cc2ccccc2)C[C@H](O)[C@H](Cc2ccccc2)NC(=O)OCc2cncs2)C(C)C)cs1` [Ritonavir], for which the “Toxicity in HHA Cells” value in data set [3] (setting [5]) and in data set [3] (setting [6]) was “Toxic” throughout.
On to `CN(CCOc1ccc(CC2SC(=O)NC2=O)cc1)c1ccccn1` (stereo not shown) [Rosiglitazone], for which the “Toxicity in HHA Cells” value in data set [3] (setting [5]) and in data set [3] (setting [6]) was “Non-Toxic” each time.
Consider `CC/C(=C(\c1ccccc1)c1ccc(OCCN(C)C)cc1)c1ccccc1` [Tamoxifen], for which the “Toxicity in HHA Cells” value in data set [3] (setting [6]) is recorded as “Toxic”.
In the case of `CCO[C@@H](Cc1ccc(OCCc2ccc(OS(C)(=O)=O)cc2)cc1)C(=O)O` [Tesaglitazar], the “Toxicity in HHA Cells” value in data set [3] (setting [5]) is on record as “Non-Toxic”. The “Toxicity in HHA Cells” value in data set [3] (setting [6]) was “Non-Toxic”. Besides, in data set [4], the “peptide hits BMS-PTX-062” value was 1, the “peptide hits BMS-PTX-120” value is 3, the “peptide hits BMS-PTX-225” value came to 0 and the “peptide hits BMS-PTX-254” value worked out at 1. Also, in data set [4], the “peptide hits BMS-PTX-260” value stood at 0, the “peptide hits BMS-PTX-265” value stood at 8, the “peptide hits BMS-PTX-447” value was 6 and the “peptide hits BMS-PTX-459” value was 8. Moreover, in data set [4], the “peptide hits BMS-PTX-607” value worked out at 0, the “peptide hits BMS-PTX-749” value was found to be 6, the “peptide hits BMS-PTX-808” value came out at 1 and the “peptide hits BMS-PTX-837” value was 8. Besides, in data set [4], the “peptide hits BMS-PTX-860” value is given as 0, the “peptide hits BMS-PTX-(29)147” value was 31 and the “peptide hits BMS-PTX-(39)147” value came to 1.
As for `CN1CCN(CCCN2c3ccccc3Sc3ccc(C(F)(F)F)cc32)CC1` [Trifluoperazine], the “Toxicity in HHA Cells” value in data set [3] (setting [6]) is reported as “Toxic”.
Take `Cc1c(C)c2c(c(C)c1O)CCC(C)(COc1ccc(CC3SC(=O)NC3=O)cc1)O2` (stereo not shown) [Troglitazone]: in data set [1], the “change in levels of BMS-PTX-265” value is recorded as “statistically significant (p<0.05) increase”. Further, in data set [2], the IC50 is 32.7 µM. Moreover, the “Toxicity in HHA Cells” value in data set [3] (setting [5]) was “Toxic”. The “Toxicity in HHA Cells” value in data set [3] (setting [6]) was “Toxic”. For the same compound, in data set [4], the “peptide hits BMS-PTX-062” value turned out to be 4, the “peptide hits BMS-PTX-120” value was determined as 12, the “peptide hits BMS-PTX-225” value turned out to be 11 and the “peptide hits BMS-PTX-254” value came out at 7. In data set [4], the “peptide hits BMS-PTX-260” value is 4, the “peptide hits BMS-PTX-265” value amounted to 66, the “peptide hits BMS-PTX-447” value was 33 and the “peptide hits BMS-PTX-459” value is 14. In data set [4], the “peptide hits BMS-PTX-607” value worked out at 7, the “peptide hits BMS-PTX-749” value came out at 60, the “peptide hits BMS-PTX-808” value was determined as 10 and the “peptide hits BMS-PTX-837” value is 17. Also, in data set [4], the “peptide hits BMS-PTX-860” value worked out at 4, the “peptide hits BMS-PTX-(29)147” value was determined as 67 and the “peptide hits BMS-PTX-(39)147” value stood at 19.
